15 compounds from patent publication US9145392B2, “Imidazole amines as modulators of kinase activity” (Merck Patent GmbH, priority 2011, dated 2015) can be followed below.

Test [1] deals with His-AKT (Full Length) (Homo sapiens (Human), UniProt P31749). The test is described as follows: AKT enzyme assay. The class given is biochemical. Conditions: read-out: IC50 AKT.
Test [2] concerns the target P70S6K (T412E mutant) (Homo sapiens (Human), UniProt P23443, T412E). The test is described as follows: P70S6K enzyme assay. The settings on record: read-out: IC50 p70S6K. The class given is biochemical. Summed up: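 Read-out is the substrate/phosphopeptide ratio from mobility-shift electrophoresis on a LabChip 3000.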

Sequence of P70S6K (T412E mutant) (P23443 whole entry T412E): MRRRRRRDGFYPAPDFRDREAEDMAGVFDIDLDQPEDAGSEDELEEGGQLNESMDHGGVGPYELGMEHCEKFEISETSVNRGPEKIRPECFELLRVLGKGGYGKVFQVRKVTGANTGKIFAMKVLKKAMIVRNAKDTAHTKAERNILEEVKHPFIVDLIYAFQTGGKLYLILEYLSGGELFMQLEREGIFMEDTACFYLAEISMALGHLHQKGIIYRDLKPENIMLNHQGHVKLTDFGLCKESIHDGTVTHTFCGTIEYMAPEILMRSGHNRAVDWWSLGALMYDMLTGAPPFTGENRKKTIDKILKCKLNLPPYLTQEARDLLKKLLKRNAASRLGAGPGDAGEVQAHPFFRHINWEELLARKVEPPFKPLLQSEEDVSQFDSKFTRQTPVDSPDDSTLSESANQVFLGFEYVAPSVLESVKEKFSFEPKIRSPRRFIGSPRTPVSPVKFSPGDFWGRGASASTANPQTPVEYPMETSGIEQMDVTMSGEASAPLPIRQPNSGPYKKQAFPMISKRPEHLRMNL
Sequence of His-AKT (Full Length) (P31749 whole entry): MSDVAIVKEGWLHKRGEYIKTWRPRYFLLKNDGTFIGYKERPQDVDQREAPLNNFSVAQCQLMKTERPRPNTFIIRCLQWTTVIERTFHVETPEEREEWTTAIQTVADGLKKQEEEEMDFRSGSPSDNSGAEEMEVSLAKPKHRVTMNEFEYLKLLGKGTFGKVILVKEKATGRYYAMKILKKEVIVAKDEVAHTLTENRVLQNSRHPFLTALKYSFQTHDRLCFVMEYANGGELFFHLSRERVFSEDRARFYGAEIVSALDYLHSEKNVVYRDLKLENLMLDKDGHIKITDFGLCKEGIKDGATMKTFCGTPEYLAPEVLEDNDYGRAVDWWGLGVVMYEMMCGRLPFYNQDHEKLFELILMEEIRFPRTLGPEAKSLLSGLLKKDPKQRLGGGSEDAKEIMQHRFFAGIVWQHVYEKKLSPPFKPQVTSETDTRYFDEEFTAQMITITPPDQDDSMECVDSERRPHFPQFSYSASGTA

A word on the IC50: it is the midpoint of a concentration-inhibition curve. As for `Cc1cc(-c2cn(CCNC(C)C)c(C3CCN(c4ncnc(N)c4C(N)=O)CC3)n2)ccc1F` [Compound 386, 4-Amino-6-{4-[4-(4-fluoro-3-methyl-phenyl)-1-(2-isopropylamino-ethyl)-1H-imidazol-2-yl]-piperidin-1-yl}-pyrimidine-5-carboxylic acid amide], the IC50 came out at 15 nM in test [1] and 2.4 nM in test [2].
With `NC(=O)c1c(N)ncnc1N1CCC(c2nc(-c3ccc(F)c(C(F)(F)F)c3)cn2CCNC2CCCC2)CC1` [Compound 387, 4-Amino-6-{4-[1-(2-cyclopentylamino-ethyl)-4-(4-fluoro-3-trifluoromethyl-phenyl)-1H-imidazol-2-yl]-piperidin-1-yl}-pyrimidine-5-carboxylic acid amide], the results for the IC50 in test [1] and in test [2] were 8.4 nM and 1.4 nM, respectively.
Turning to `CCC(C)(C)NCCn1cc(-c2ccc(F)c(C(F)(F)F)c2)nc1C1CCN(c2ncnc(N)c2C(N)=O)CC1` [Compound 388, 4-Amino-6-{4-[1-[2-(1,1-dimethyl-propylamino)-ethyl]-4-(4-fluoro-3-trifluoromethyl-phenyl)-1H-imidazol-2-yl]-piperidin-1-yl}-pyrimidine-5-carboxylic acid amide], the IC50 is 13 nM in test [1] and 2 nM in test [2].
The matching figures for `Cc1cc(-c2cn(CCNC3CCCC3)c(C3CCN(c4ncnc(N)c4C#N)CC3)n2)ccc1F` [Compound 389, 4-Amino-6-{4-[1-(2-cyclopentylamino-ethyl)-4-(4-fluoro-3-methyl-phenyl)-1H-imidazol-2-yl]-piperidin-1-yl}-pyrimidine-5-carbonitrile]: 0.7 nM and 0.9 nM.
The matching figures for `Cc1cc(-c2cn(CCNCC(C)C)c(C3CCN(c4ncnc(N)c4C#N)CC3)n2)ccc1F` [Compound 390, 4-Amino-6-{4-[4-(4-fluoro-3-methyl-phenyl)-1-(2-isobutylamino-ethyl)-1H-imidazol-2-yl]-piperidin-1-yl}-pyrimidine-5-carbonitrile]: 1.4 nM and 1.9 nM.
For `Cc1cc(-c2cn(CCNC3CCCC3)c(C3CCN(c4ncnc(N)c4C(N)=O)CC3)n2)ccc1F` [Compound 391, 4-Amino-6-{4-[1-(2-cyclopentylamino-ethyl)-4-(4-fluoro-3-methyl-phenyl)-1H-imidazol-2-yl]-piperidin-1-yl}-pyrimidine-5-carboxylic acid amide], in that order: 5.6 nM and 4 nM.
On to `Cc1cc(-c2cn(CCNCC(C)C)c(C3CCN(c4ncnc(N)c4C(N)=O)CC3)n2)ccc1F` [Compound 392, 4-Amino-6-{4-[4-(4-fluoro-3-methyl-phenyl)-1-(2-isobutylamino-ethyl)-1H-imidazol-2-yl]-piperidin-1-yl}-pyrimidine-5-carboxylic acid amide], for which the figures for the IC50 in test [1] and in test [2] were 13 nM and 5.5 nM, respectively.
The matching figures for `Cc1cc(-c2cn(CCO)c(C3CCN(c4ncnc(N)c4C(N)=O)CC3)n2)ccc1F` [Compound 393, 4-Amino-6-{4-[4-(4-fluoro-3-methyl-phenyl)-1-(2-hydroxy-ethyl)-1H-imidazol-2-yl]-piperidin-1-yl}-pyrimidine-5-carboxylic acid amide]: 47 nM and 2.8 nM.
The matching figures for `CNCCn1cc(-c2ccc(F)c(C)c2)nc1C1CCN(c2ncnc(N)c2C#N)CC1` [Compound 394, 4-Amino-6-{4-[4-(4-fluoro-3-methyl-phenyl)-1-(2-methylamino-ethyl)-1H-imidazol-2-yl]-piperidin-1-yl}-pyrimidine-5-carbonitrile]: 1.7 nM and 0.9 nM.
For `NC(=O)c1c(N)ncnc1N1CCC(c2nc(-c3ccc(F)c(C(F)(F)F)c3)cn2CCO)CC1` [Compound 395, 4-Amino-6-{4-[4-(4-fluoro-3-trifluoromethyl-phenyl)-1-(2-hydroxy-ethyl)-1H-imidazol-2-yl]-piperidin-1-yl}-pyrimidine-5-carboxylic acid amide], in that order: 180 nM and 1.6 nM.
On to `CCOc1c(N)ncnc1N1CCC(c2nc(-c3ccc(F)c(C)c3)cn2CCO)CC1` [Compound 396, 2-[2-[1-(6-Amino-5-ethoxy-pyrimidin-4-yl)-piperidin-4-yl]-4-(4-fluoro-3-methyl-phenyl)-imidazol-1-yl]-ethanol], for which the IC50 in test [1] was found to be 340 nM; in test [2] it was 3.5 nM.
For `CNCCn1cc(-c2ccc(F)c(C)c2)nc1C1CCN(c2ncnc(N)c2C(N)=O)CC1` [Compound 397, 4-Amino-6-{4-[4-(4-fluoro-3-methyl-phenyl)-1-(2-methylamino-ethyl)-1H-imidazol-2-yl]-piperidin-1-yl}-pyrimidine-5-carboxylic acid amide], in that order: 16 nM and 2.5 nM.
As for `CCOc1c(N)ncnc1N1CCC(c2nc(-c3ccc(F)c(C(F)(F)F)c3)cn2CCNC(C)C)CC1` [Compound 398, 5-Ethoxy-6-{4-[4-(4-fluoro-3-trifluoromethyl-phenyl)-1-(2-isopropylamino-ethyl)-1H-imidazol-2-yl]-piperidin-1-yl}-pyrimidin-4-ylamine], the concentration for half-maximal inhibition (IC50) in test [1] came to 1.5 nM; in test [2] it was 2.1 nM.
The matching figures for `Cc1cc(-c2cn(CC3CN(CO)C3)c(C3CCN(c4ncnc(N)c4C(C)C)CC3)n2)ccc1F` [Compound 399, {3-[2-[1-(6-Amino-5-isopropyl-pyrimidin-4-yl)-piperidin-4-yl]-4-(4-fluoro-3-methyl-phenyl)-imidazol-1-ylmethyl]-azetidin-1-yl}-methanol]: 56 nM and 2.5 nM.
The matching figures for `CCc1c(N)ncnc1N1CCC(c2nc(-c3ccc(F)c(C)c3)cn2CC2CN(C)C2)CC1` [Compound 400, 5-Ethyl-6-{4-[4-(4-fluoro-3-methyl-phenyl)-1-(1-methyl-azetidin-3-ylmethyl)-1H-imidazol-2-yl]-piperidin-1-yl}-pyrimidin-4-ylamine]: 0.3 nM and 0.06 nM.
